Assay [1] has as its system HDC+/+ mice. The experiment in a line: Polygraphic (EEG/EMG) sleep-wake recording in wild type mice. It is filed as in vivo, mouse. The method, then: (§1) Animal experiments were conducted according to the Animal Protection Law of the Federal Republic of Germany and the local guidelines (Bezirksregierung Duesseldorf) and were in accordance with the European Communities Council directive regarding care and use of animals for experimental procedures (86/609/EEC). The general protocol of sleep-wake recording and experiment in the mouse was approved by the ethic committee of Claude Bernard University of Lyon. All efforts were made to minimize the number of animals and their suffering. At the age of 12 weeks and with a body weight of 30±2 g HDC wild type and knockout mice used for EEG and sleep-wake studies were chronically implanted, under deep gas anesthesia using isoflurane (2%, 200 ml/min) and a TEM anesthesia system (Bordeaux, France), with six cortical electrodes (gold-plated tinned copper wire, Ø = 0.4 mm, Filotex, Draveil, France) and three neck muscle electrodes (fluorocarbon-coated gold-plated stainless steel wire, Ø = 0.03 mm, Cooner Wire Chatworth, CA, U.S.A.) to record the electroencephalogram (EEG) and electromyogram (EMG) and to monitor the sleep-wake cycle. Finally, the electrode assembly was anchored and fixed to the skull with Super-Bond (Sun Medical Co., Shiga, Japan) and dental cement. This implantation allows stable and long-lasting polygraphic recordings.
(§2) After surgery, the animals were housed individually in barrels placed in an insulated sound-proof recording room maintained at an ambient temperature of 22±1°C and on a 12 h light/dark cycle (lights-on at 7 a.m.), standard food and water being available ad libitum. After a 7-days recovery period, mice were habituated to the recording cable for 7 days before polygraphic recordings were started. Cortical EEG (contralateral frontoparietal leads) and EMG signals were amplified, digitized with a resolution of 256 and 128 Hz, respectively, and computed on a CED 1401 Plus (Cambridge, UK). Using a Spike2 script and with the assistance of spectral analysis using the fast Fourier transform, polygraphic records were visually scored by 30-sec epochs for wakefulness (W), slow wave sleep (SWS), and paradoxical sleep (PS) according to previously described criteria validated for mice.
(§3) Animals were subjected to 12 h sleep-wake recordings following administration of URSOFALK (clinically used UDCA, 32 mg/kg) through the oral route (per os) at 10 a.m. (during the sleepy period) or at 7 p.m. (during the active period). Each animal received twice single dose of UDCA and twice equal volume of vehicle. There was an interval of 7 days between any two administrations. UDCA or vehicle was applied at random. The waking, slow wave sleep or paradoxical sleep amounts were compared between vehicle and UCDA within the same animal, the differences being averaged within the groups. […]

The test system of assay [2] is HDC−/− mice. As to the kind of experiment: Polygraphic (EEG/EMG) sleep-wake recording in histamine-deficient mice. The assay is classed as in vivo, mouse. The method, then: as §1, §2, §3
Assay [3] deals with cultured hypothalamic neurons. The experiment in a line: Microelectrode array (MEA) recordings of cultured hypothalamic neurons. It is filed as cell-based, mouse. The method, then: Primary dissociated cultures of posterior hypothalamus were prepared from newborn mice according to the protocols previously described, [43]. […] Recordings were done between 11th-21st day after plating. […] Signals from all 60 electrodes were simultaneously sampled at 25 kHz, visualized and stored using the standard software […] provided by Multi Channel Systems. Spike detection and analysis was performed offline with the software […] (RESULT Medizinische […], Germany), which uses the agreement coefficient “Cohen's kappa” (κ) to assess the degree of spike and burst synchrony for selected pairs of electrodes. […] In order to describe the distribution of kappa across the whole MEA, we calculated the mean of all kappa-values obtained for pairs of “active” electrodes. At the beginning of experiments the basal medium was replaced by a magnesium-free HEPES-based recording solution (see above) and measurements were started after a 20 min adaptation phase. Every measurement comprised three recordings - control, test substance and washout (second control) - each two minutes long and separated by an intermediate period of 30 seconds.

The subject of assay [4] is TMN neurons (eIPSCs and sIPSCs). As to the kind of experiment: Spontaneous and evoked IPSCs in TMN neurons in brain slices. It is filed as cell-based, rat. How it is done: Recordings from histaminergic neurons in male Wistar rat (22–26 day old) or 30–60 day old mouse (SV129, histidine decarboxylase deficient HDC−/− or their wild type littermates) hypothalamic slices were performed as previously described. Slices were obtained between 9 and 11 a.m. In the beginning of whole-cell voltage clamp recordings TMN neurons were identified with the help of DIC microscopy and electrophysiological criteria as previously described. Inhibitory postsynaptic currents (IPSCs) were evoked by local stimulation through a bipolar stainless-steel stimulating electrode (50 µm; WPI, UK). The stimulation of axonal endings coming to TMN from ventrolateral preoptic area (VLPO) was done as described in [22]. […] Individual neurons were separated by vibrodissociation after brief preincubation with papain from the hypothalamic slices of mice or rats and identified as TMN neurons according to their size and shape. Identification was confirmed post hoc with the single-cell RT-PCR (all data presented in the manuscript were obtained from histidine decarboxylase-expressing neurons), [40]. TMN neurons from HDC−/− mice were identified by the expression of peripherin [16]. Whole-cell voltage-clamp recordings from isolated neurons were done with an EPC-9 amplifier and TIDA for Windows (HEKA, Lambrecht, Germany) at room temperature. Membrane potentials were not corrected for liquid junction potential (5.6 mV, calculated with LJPCalc, Barry, 1994). The intracellular solution was composed of (in mM) 140 KCl, 2 MgCl2, 0.5 CaCl2, 5 EGTA, 2 ATP and 10 HEPES (pH 7.2 adjusted with NaOH). A fast perfusion technique was used for application of ligands and modulators of fast ionotropic receptors, [41]. […] EC50 is the ligand concentration producing a half-maximal response, [ligand] is ligand concentration, and n is the Hill slope. Hill coefficients were obtained from the slope of the log/log plot of the dose-response curves. […] Steady-state amplitudes of the responses were used for the construction of dose-response plots if not mentioned otherwise.

Where [5] appears, read: UDCA 32 mg/kg per os at 7 p.m., vs vehicle.

For the molecule `C[C@H](CCC(=O)O)[C@H]1CC[C@H]2[C@@H]3[C@@H](O)C[C@@H]4C[C@H](O)CC[C@]4(C)[C@H]3CC[C@]12C` [UDCA, ursodeoxycholic acid], in assay [1] (32 mg/kg orally at 10 a.m. (quiet period)), the sleep wake states result is “did not affect”. In addition, in assay [1] (UDCA 32 mg/kg per os at 7 p.m. (active period), vs vehicle, n = 11), the waking entry is “significantly increased”. Further, in assay [1] (setting [5]), the “amount of paradoxical sleep (PS)” value was “decreased” and the “amount of slow wave sleep (SWS)” value is listed as “decreased”. In assay [2] (32 mg/kg orally at 10 a.m. (quiet period), n = 7), the sleep wake states result is recorded as “did not affect”. In assay [2] (setting [5]), the “slow wave sleep (SWS) and paradoxical sleep (PS)” value is “tended to be increased”; the total sleep result is reported as “increased”; the waking result is reported as “significantly decreased”. Besides, in assay [3] (UDCA), the “synchronicity of firing within the hypothalamic network (Cohen's kappa)” value is listed as “increased”. For the same molecule, the firing frequency result in assay [3] (UDCA 10, 30 or 100 µM) is on record as “not affected”. Moreover, in assay [3] (with GABAA receptor antagonist gabazine), the “effect on synchronization in the presence of gabazine” value was “abolished”. For the same molecule, the “UDCA-induced synchronization of firing with mifepristone and spironolactone” value in assay [3] (with mifepristone 10 µM and spironolactone 10 µM) is “not affected”. Moreover, the “effect on eIPSCs and sIPSCs” value in assay [4] (30 µM) is recorded as “ineffective”. Moreover, the “amplitude of eIPSCs and sIPSCs” value in assay [4] (100 µM) was “significantly inhibited the amplitude of eIPSCs and sIPSCs in less than half of the neurons”. Also, the “amplitude and decay time of eIPSCs and sIPSCs” value in assay [4] (300 µM, all investigated neurons) is recorded as “significant reductions”.

Values taken from PMC3412845, “Waking Action of Ursodeoxycholic Acid (UDCA) Involves Histamine and GABAA Receptor Block” (PLoS ONE, 2012).
